Laboratory results reported in the NIST ThermoML archive (doi:10.1016/j.fluid.2007.09.028).
Numbers after ± are expanded uncertainties.

Experiment: xn = mol fraction of the nth substance listed
Conditions: 101 kPa, Liquid

Clc1ccccc1 [chlorobenzene] + CCCCO
mass density [kg/m3]
Conditions	288.15 K	293.15 K	298.15 K	303.15 K	308.15 K	313.15 K
x2 = 0	1111.81 ± 0.3	1106.43 ± 0.29	1101.04 ± 0.28	1095.64 ± 0.28	1090.23 ± 0.27	1084.82 ± 0.26
x2 = 0.0491	1098.36 ± 0.29	1092.97 ± 0.28	1087.57 ± 0.27	1082.16 ± 0.26	1076.75 ± 0.25	1071.34 ± 0.25
x2 = 0.1013	1084.16 ± 0.27	1078.81 ± 0.26	1073.45 ± 0.25	1068.07 ± 0.24	1062.67 ± 0.23	–
x2 = 0.1492	1071.13 ± 0.25	1065.83 ± 0.24	1060.5 ± 0.23	1055.16 ± 0.22	1049.8 ± 0.21	1044.42 ± 0.2
x2 = 0.2004	1057.1 ± 0.23	1051.85 ± 0.22	1046.57 ± 0.21	1041.28 ± 0.2	1035.97 ± 0.2	1030.63 ± 0.19
x2 = 0.2501	1043.32 ± 0.21	1038.12 ± 0.2	1032.91 ± 0.19	1027.68 ± 0.18	1022.42 ± 0.18	1017.14 ± 0.17
x2 = 0.3	1029.41 ± 0.19	1024.28 ± 0.18	1019.13 ± 0.17	1013.96 ± 0.17	1008.76 ± 0.16	1003.55 ± 0.15
x2 = 0.3507	1015.11 ± 0.17	1010.04 ± 0.16	1004.96 ± 0.15	999.858 ± 0.15	994.721 ± 0.15	989.562 ± 0.16
x2 = 0.4	1001.06 ± 0.15	996.06 ± 0.15	991.039 ± 0.16	985.993 ± 0.17	980.92 ± 0.18	975.825 ± 0.18
x2 = 0.4502	986.537 ± 0.17	981.622 ± 0.18	976.686 ± 0.18	971.72 ± 0.19	966.72 ± 0.2	961.715 ± 0.21
x2 = 0.5	972.013 ± 0.19	967.172 ± 0.2	962.314 ± 0.21	957.429 ± 0.21	952.506 ± 0.22	947.561 ± 0.23
x2 = 0.5499	957.246 ± 0.22	952.491 ± 0.22	947.717 ± 0.23	942.914 ± 0.24	938.072 ± 0.24	933.199 ± 0.25
x2 = 0.5998	942.296 ± 0.24	937.639 ± 0.25	932.95 ± 0.26	928.23 ± 0.26	923.477 ± 0.27	918.689 ± 0.28
x2 = 0.6504	926.891 ± 0.27	922.329 ± 0.27	917.738 ± 0.28	913.116 ± 0.29	908.455 ± 0.29	903.772 ± 0.3
x2 = 0.7002	911.543 ± 0.29	907.078 ± 0.3	902.582 ± 0.31	898.054 ± 0.31	893.49 ± 0.32	888.906 ± 0.33
x2 = 0.749	896.297 ± 0.32	891.927 ± 0.32	887.529 ± 0.33	883.097 ± 0.34	878.634 ± 0.34	874.13 ± 0.35
x2 = 0.7995	880.209 ± 0.34	875.948 ± 0.35	871.658 ± 0.36	867.339 ± 0.36	862.977 ± 0.37	858.585 ± 0.38
x2 = 0.849	864.175 ± 0.37	860.018 ± 0.38	855.838 ± 0.38	851.632 ± 0.39	847.387 ± 0.4	843.125 ± 0.4
x2 = 0.9006	847.199 ± 0.4	843.162 ± 0.4	839.105 ± 0.41	835.018 ± 0.42	830.894 ± 0.42	826.737 ± 0.43
x2 = 0.9505	830.398 ± 0.43	826.483 ± 0.43	822.545 ± 0.44	818.578 ± 0.44	814.579 ± 0.45	810.547 ± 0.46

Clc1ccccc1 [chlorobenzene] + CCCO
mass density [kg/m3]
Conditions	288.15 K	293.15 K	298.15 K	303.15 K	308.15 K	313.15 K
x2 = 0	1111.81 ± 0.3	1106.43 ± 0.29	1101.04 ± 0.28	1095.64 ± 0.28	1090.23 ± 0.27	1084.82 ± 0.26
x2 = 0.0254	1105.92 ± 0.3	1100.51 ± 0.29	1095.1 ± 0.28	1089.69 ± 0.27	1084.26 ± 0.26	1078.83 ± 0.25
x2 = 0.0513	1100.01 ± 0.29	1094.6 ± 0.28	1089.18 ± 0.27	1083.75 ± 0.26	1078.3 ± 0.25	1072.86 ± 0.25
x2 = 0.0726	1095.18 ± 0.28	1089.77 ± 0.27	1084.35 ± 0.26	1078.91 ± 0.26	1073.46 ± 0.25	1068.03 ± 0.24
x2 = 0.0738	1094.9 ± 0.28	1089.49 ± 0.27	1084.07 ± 0.26	1078.63 ± 0.26	1073.18 ± 0.25	1067.73 ± 0.24
x2 = 0.1016	1088.48 ± 0.27	1083.08 ± 0.26	1077.66 ± 0.25	1072.22 ± 0.25	1066.77 ± 0.24	1061.3 ± 0.23
x2 = 0.1058	1087.51 ± 0.27	1082.11 ± 0.26	1076.69 ± 0.25	1071.26 ± 0.24	1065.81 ± 0.24	1060.35 ± 0.23
x2 = 0.1365	1080.3 ± 0.26	1074.91 ± 0.25	1069.5 ± 0.24	1064.08 ± 0.23	1058.63 ± 0.23	1053.17 ± 0.22
x2 = 0.2019	1064.7 ± 0.24	1059.35 ± 0.23	1053.96 ± 0.22	1048.56 ± 0.21	1043.17 ± 0.2	1037.75 ± 0.2
x2 = 0.2472	1053.55 ± 0.22	1048.23 ± 0.21	1042.89 ± 0.21	1037.53 ± 0.2	1032.14 ± 0.19	1026.73 ± 0.18
x2 = 0.2984	1040.5 ± 0.2	1035.23 ± 0.2	1029.94 ± 0.19	1024.62 ± 0.18	1019.26 ± 0.17	1013.88 ± 0.16
x2 = 0.3443	1028.6 ± 0.19	1023.38 ± 0.18	1018.13 ± 0.17	1012.85 ± 0.16	1007.53 ± 0.16	1002.2 ± 0.15
x2 = 0.4027	1012.95 ± 0.17	1007.78 ± 0.16	1002.6 ± 0.15	997.378 ± 0.15	992.12 ± 0.16	986.836 ± 0.17
x2 = 0.4952	986.837 ± 0.17	981.797 ± 0.18	976.724 ± 0.19	971.618 ± 0.19	966.472 ± 0.2	961.296 ± 0.21
x2 = 0.5492	970.777 ± 0.2	965.817 ± 0.2	960.824 ± 0.21	955.797 ± 0.22	950.728 ± 0.23	945.63 ± 0.23
x2 = 0.5975	955.977 ± 0.22	951.086 ± 0.23	946.167 ± 0.24	941.211 ± 0.24	936.213 ± 0.25	931.183 ± 0.26
x2 = 0.6447	940.98 ± 0.25	936.176 ± 0.25	931.338 ± 0.26	926.463 ± 0.27	921.545 ± 0.28	916.599 ± 0.28
x2 = 0.699	923.003 ± 0.28	918.296 ± 0.28	913.559 ± 0.29	908.798 ± 0.3	903.973 ± 0.3	899.127 ± 0.31
x2 = 0.7494	905.686 ± 0.3	901.079 ± 0.31	896.443 ± 0.32	891.773 ± 0.33	887.057 ± 0.33	882.312 ± 0.34
x2 = 0.8008	887.239 ± 0.34	882.746 ± 0.34	878.223 ± 0.35	873.664 ± 0.35	869.063 ± 0.36	864.438 ± 0.37
x2 = 0.8473	869.896 ± 0.36	865.508 ± 0.37	861.093 ± 0.38	856.643 ± 0.38	852.152 ± 0.39	847.622 ± 0.4
x2 = 0.8955	851.18 ± 0.39	846.915 ± 0.4	842.621 ± 0.41	838.296 ± 0.41	833.934 ± 0.42	829.53 ± 0.43
x2 = 0.9192	841.722 ± 0.41	837.516 ± 0.42	833.28 ± 0.42	829.014 ± 0.43	824.709 ± 0.43	820.375 ± 0.44
x2 = 0.9497	829.134 ± 0.43	825.009 ± 0.44	820.857 ± 0.44	816.677 ± 0.45	812.457 ± 0.46	808.213 ± 0.46
